Laboratory results from patent US10947237B2, “Antimicrobial compounds and methods of making and using the same” (BIOVERSYS AG, priority 2015, dated 2021).

Assays:
[1] = tested on: Eschericia coli (E. Coli) strain ATCC25922; experiment: standard microdilution assay, minimum inhibitory concentration (MIC); type: cell-based; details: Escherichia coli; Table 2; strain ATCC25922
Experimental: (§1) The in vitro activity of the compounds of the present disclosure can be determined. Antimicrobial testing is typically performed to determine the minimum inhibitory concentration (MIC). Minimum inhibitory concentrations (MICs) are determined by the microdilution method in a final volume of 100 μl according to protocols outlined by The Clinical and Laboratory Standards Institute (CLSI). Performance standards for reference strains are assessed within the same experimental design to maintain quality control. See, for example, Clinical Laboratory Standards Institute: Methods for dilution antimicrobial susceptibility tests for bacteria that grow aerobically M7-A8. Approved Standard-Eighth Edition. Wayne, Pa.: CLSI; December 2008; and Clinical Laboratory Standards Institute: Performance Standards for Antimicrobial Susceptibility Testing M100-S20; Approved Standard-Twentieth Edition. Wayne, Pa.: CLSI; June 2010. The compounds of the present disclosure were tested for antimicrobial activity. The Compounds 1-149 were run against Eschericia coli (E. Coli) strain ATCC25922 and against Staphylococcus aureus (S. aureus) 11540 strain using a standard microdilution assay to determine minimum inhibitory concentrations (MICs). […] It will be recognized by one skilled in the art that the compounds can be assessed against other bacterial organisms and that the presentation of data for activity against Eschericia coli and Staphylococcus aureus are illustrative and in no way is intended to limit the scope of the present disclosure. The compounds of the present disclosure can be assayed against a range of other microorganisms depending upon the performance activity desired to be gathered. Furthermore, the “+” and “−” representation and the selection of a cutoff value of 16 micrograms/mL is also illustrative and in no way is intended to limit the scope of the present disclosure.

[2] = tested on: Staphylococcus aureus (S. aureus) 11540 strain; experiment: as above; type: cell-based; details: Table 2, 11540 strain
Experimental: as §1

MIC [1] [µg/mL] | MIC [2] [µg/mL] | SMILES
≤ 16 | ≤ 16 | CC(=N)NCC[C@H]1CCC[C@H](c2ccc(-n3cc4cc(-c5cc(CCC[C@H](C)N)cc(Cl)c5F)[nH]c4nc3=O)cc2)N1 [Compound 1]
≤ 16 | ≤ 16 | CC1=NCC[C@H]2CCC[C@H](c3ccc(-n4cc5cc(-c6cc(CCC[C@H](C)N)cc(Cl)c6F)[nH]c5nc4=O)cc3)N12 [Compound 2]
≤ 16 | ≤ 16 | C[C@H](N)CCCc1cc(Cl)c(F)c(-c2cc3cn(-c4ccc([C@H]5CCC[C@H](CCNC(=N)c6ccccn6)N5)cc4)c(=O)nc3[nH]2)c1 [Compound 3]
≤ 16 | ≤ 16 | C[C@H](N)CCCc1cc(Cl)c(F)c(-c2cc3cn(-c4ccc(CN[C@H](CCNC(=N)N)CNC(=N)N)cc4)c(=O)nc3[nH]2)c1 [Compound 4]
≤ 16 | ≤ 16 | C[C@H](N)CCCc1cc(Cl)c(F)c(-c2cc3cn(-c4ccc([C@@H]5CCC[C@@H](CNCc6cn[nH]c6)N5)cc4)c(=O)nc3[nH]2)c1 [Compound 5]
≤ 16 | ≤ 16 | C[C@H](N)CCCc1cc(Cl)c(F)c(-c2cc3cn(-c4ccc([C@@H]5CCC[C@@H](CNCc6cccnn6)N5)cc4)c(=O)nc3[nH]2)c1 [Compound 6]
≤ 16 | ≤ 16 | C[C@H](N)CCCc1cc(Cl)c(F)c(-c2cc3cn(-c4ccc(CN[C@H](CCNC(=N)N)Cn5ccc(=O)[nH]c5=O)cc4)c(=O)nc3[nH]2)c1 [Compound 7]
≤ 16 | ≤ 16 | Cc1cn(CC[C@@H]2CCC[C@@H](c3ccc(-n4cc5cc(-c6cc(CCC[C@H](C)N)cc(Cl)c6F)[nH]c5nc4=O)cc3)N2)c(=O)o1 [Compound 8]
≤ 16 | ≤ 16 | CC(=O)CNCC[C@@H]1CCC[C@@H](c2ccc(-n3cc4cc(-c5cc(CCC[C@H](C)N)cc(Cl)c5F)[nH]c4nc3=O)cc2)N1 [Compound 9]
> 16 | > 16 | C[C@H](N)CCCc1cc(Cl)c(F)c(-c2cc3cn(-c4ccc([C@@H]5CCC[C@@H](Cc6cnc(N)o6)N5)cc4)c(=O)nc3[nH]2)c1 [Compound 10]
≤ 16 | ≤ 16 | Cc1nc[nH]c1CNC[C@@H]1CCC[C@@H](c2ccc(-n3cc4cc(-c5cc(CCC[C@H](C)N)cc(Cl)c5F)[nH]c4nc3=O)cc2)N1 [Compound 11]
> 16 | > 16 | C[C@H](N)CCCc1cc(Cl)c(F)c(-c2cc3cn(-c4ccc([C@@H]5CCC[C@@H](CCNc6ncccn6)N5)cc4)c(=O)nc3[nH]2)c1 [Compound 12]
≤ 16 | ≤ 16 | C[C@H](N)CCCc1cc(Cl)c(F)c(-c2cc3cn(-c4ccc(CN[C@@H](CCO)CCNC(=N)N)cc4)c(=O)nc3[nH]2)c1 [Compound 13]
≤ 16 | ≤ 16 | Cc1ccnc(NC[C@@H](CCNC(=N)N)NCc2ccc(-n3cc4cc(-c5cc(CCC[C@H](C)N)cc(Cl)c5F)[nH]c4nc3=O)cc2)c1 [Compound 14]
≤ 16 | ≤ 16 | C[C@H](N)CCCc1cc(Cl)c(F)c(-c2cc3cn(-c4ccc(CN[C@H](CCNC(=N)N)CS(N)(=O)=O)cc4)c(=O)nc3[nH]2)c1 [Compound 15]
≤ 16 | ≤ 16 | C[C@H](N)CCCc1cc(Cl)c(F)c(-c2cc3cn(-c4ccc([C@@H]5CCC[C@@H](CNCc6cc[nH]c(=O)c6)N5)cc4)c(=O)nc3[nH]2)c1 [Compound 16]
≤ 16 | ≤ 16 | C[C@H](N)CCCc1cc(Cl)c(F)c(-c2cc3cn(-c4ccc([C@@H]5CCC[C@@H](CCn6ccoc6=O)N5)cc4)c(=O)nc3[nH]2)c1 [Compound 17]
> 16 | > 16 | C[C@H](N)CCCc1cc(Cl)c(F)c(-c2cc3cn(-c4ccc([C@@H]5CCC[C@@H](CNCc6c[nH]nn6)N5)cc4)c(=O)nc3[nH]2)c1 [Compound 18]

MIC [1] [µg/mL] | MIC [2] [µg/mL] | SMILES
> 16 | > 16 | C[C@H](N)CCCc1cc(Cl)c(F)c(-c2cc3cn(-c4ccc([C@@H]5CCC[C@@H](CCN6CCOC6=O)N5)cc4)c(=O)nc3[nH]2)c1 [Compound 20]
≤ 16 | ≤ 16 | C[C@H](N)CCCc1cc(Cl)c(F)c(-c2cc3cn(-c4ccc(CN[C@H](CCNC(=N)N)CNc5ccccn5)cc4)c(=O)nc3[nH]2)c1 [Compound 21]
≤ 16 | ≤ 16 | C[C@H](N)CCCc1cc(Cl)c(F)c(-c2cc3cn(-c4ccc([C@@H]5CCC[C@@H](C[C@@H](O)c6ccn[nH]6)N5)cc4)c(=O)nc3[nH]2)c1 [Compound 22]
> 16 | ≤ 16 | C[C@H](N)CCCc1cc(Cl)c(F)c(-c2cc3cn(-c4ccc([C@@H]5CCC[C@@H](C[C@H](O)c6ccn[nH]6)N5)cc4)c(=O)nc3[nH]2)c1 [Compound 23]
≤ 16 | ≤ 16 | C[C@H](N)CCCc1cc(Cl)c(F)c(-c2cc3cn(-c4ccc(CN[C@H](CCNC(=N)N)CCc5cnc(N)s5)cc4)c(=O)nc3[nH]2)c1 [Compound 24]
≤ 16 | ≤ 16 | COc1ccc(CNc2ncc(CC[C@@H](CCNC(=N)N)NCc3ccc(-n4cc5cc(-c6cc(CCC[C@H](C)N)cc(Cl)c6F)[nH]c5nc4=O)cc3)s2)cc1 [Compound 25]
> 16 | ≤ 16 | C[C@H](N)CCCc1cc(Cl)c(F)c(-c2cc3cn(-c4ccc([C@H]5CCC[C@H](CCNc6ncccn6)N5)cc4)c(=O)nc3[nH]2)c1 [Compound 26]
≤ 16 | ≤ 16 | C[C@H](N)CCCc1cc(Cl)c(F)c(-c2cc3cn(-c4ccc([C@@H]5CCC[C@@H](CCNC6=NCCC6)N5)cc4)c(=O)nc3[nH]2)c1 [Compound 27]
≤ 16 | ≤ 16 | C[C@H](N)CCCc1cc(Cl)c(F)c(-c2cc3cn(-c4ccc([C@@H]5CCC[C@@H](CCNC(=N)CCCCl)N5)cc4)c(=O)nc3[nH]2)c1 [Compound 28]
≤ 16 | ≤ 16 | C[C@H](N)CCCc1cc(Cl)c(F)c(-c2cc3cn(-c4ccc([C@H]5CCC[C@H](CCNC6=NCCC6)N5)cc4)c(=O)nc3[nH]2)c1 [Compound 29]
≤ 16 | ≤ 16 | CCNC[C@@H](CCNC(=N)N)NCc1ccc(-n2cc3cc(-c4cc(CCC[C@H](C)N)cc(Cl)c4F)[nH]c3nc2=O)cc1 [Compound 30]
≤ 16 | ≤ 16 | C[C@H](N)CCCc1cc(Cl)c(F)c(-c2cc3cn(-c4ccc([C@H]5N[C@H](CCNC(=N)N)CCO5)cc4)c(=O)nc3[nH]2)c1 [Compound 31]
≤ 16 | ≤ 16 | C[C@H](N)CCCc1cc(Cl)c(F)c(-c2cc3cn(-c4ccc([C@@H]5N[C@@H](CCNC(=N)N)CCO5)cc4)c(=O)nc3[nH]2)c1 [Compound 32]
≤ 16 | ≤ 16 | C[C@H](N)CCCc1cc(Cl)c(F)c(-c2cc3cn(-c4ccc(CN[C@H](CCNC(=N)N)CNc5ccon5)cc4)c(=O)nc3[nH]2)c1 [Compound 33]
≤ 16 | ≤ 16 | C[C@H](N)CCCc1cc(Cl)c(F)c(-c2cc3cn(-c4ccc([C@@H]5CCC[C@@H](CCNC(=N)N)C5)cc4)c(=O)nc3[nH]2)c1 [Compound 34]
≤ 16 | ≤ 16 | C[C@H](N)CCCc1cc(Cl)c(F)c(-c2cc3cn(-c4ccc([C@H]5CCC[C@H](CCNC(=N)N)C5)cc4)c(=O)nc3[nH]2)c1 [Compound 35]
≤ 16 | ≤ 16 | C[C@H](N)CCCc1cc(Cl)c(F)c(-c2cc3cn(-c4ccc(CN[C@H](CCNC(=N)N)CNc5cccc6sccc56)cc4)c(=O)nc3[nH]2)c1 [Compound 36]
